# Results from ChEMBL document CHEMBL1201862, “PubChem BioAssay data set” (2004).
#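 Growth conditions: 96-well plates. Treatment: test compound, 48 hours, 5 concentrations. Analysis: linear interpolation between bracketing concentrations; unreached endpoints set to highest concentration. At the GI50, growth is halved.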 Active and inactive are the calls of the source. No stated cut-off is given here; in the data, active = GI50 up to about 1.1 µM and inactive = higher.
# Tests used:
# Assay in all cases: NCI tumour cell line growth inhibition, 48 h
# K562 = system: K562
# KM12 = system: KM12
# A549 = system: A549
# HT-29 = system: HT-29
# PC-3 = system: PC-3
# SK-MEL-28 = system: SK-MEL-28
# NCI-H23 = system: NCI-H23
# SF-268 = system: SF-268
# Malme-3M = system: Malme-3M
# MOLT-4 = system: MOLT-4
# SNB-75 = system: SNB-75
# MDA-N = system: MDA-N
# MDA-MB-231 = system: MDA-MB-231
# TK-10 = system: TK-10
# SK-MEL-5 = system: SK-MEL-5
# MCF7 = system: MCF7
# UACC-62 = system: UACC-62
# IGROV-1 = system: IGROV-1
# UACC-257 = system: UACC-257
# SN12C = system: SN12C
# HOP-62 = system: HOP-62
# HCC 2998 = system: HCC 2998
# SR = system: SR
# SK-OV-3 = system: SK-OV-3
# EKVX = system: EKVX
# HL-60 = system: HL-60
# SW-620 = system: SW-620
# RPMI-8226 = system: RPMI-8226
# SF-295 = system: SF-295
# T47D = system: T47D
# OVCAR-8 = system: OVCAR-8
# 786-0 = system: 786-0
# CCRF-CEM = system: CCRF-CEM
# M14 = system: M14
# DU-145 = system: DU-145
# COLO 205 = system: COLO 205
# HCT-15 = system: HCT-15
# RXF 393 = system: RXF 393
# CAKI-1 = system: CAKI-1
# OVCAR-4 = system: OVCAR-4
# MDA-MB-435 = system: MDA-MB-435
# U-251 = system: U-251
# NCI-H460 = system: NCI-H460
# ACHN = system: ACHN
# HOP-92 = system: HOP-92
# NCI/ADR-RES = system: NCI/ADR-RES
# SK-MEL-2 = system: SK-MEL-2
Structure (SMILES),GI50 (K562),GI50 (A549),GI50 (SK-MEL-28),GI50 (NCI-H23),GI50 (SF-268),GI50 (Malme-3M),GI50 (MOLT-4),GI50 (SNB-75),GI50 (SK-MEL-5),GI50 (MCF7),GI50 (UACC-62),GI50 (IGROV-1),GI50 (HOP-62),GI50 (SR),GI50 (SK-OV-3),GI50 (HL-60),GI50 (SW-620),GI50 (RPMI-8226),GI50 (T47D),GI50 (786-0),other results
O=[N+]([O-])c1ccc(/C=N/Nc2nnc3c4ccccc4c4ncccc4c3n2)o1,> 10 µM (inactive),> 10 µM (inactive),> 10 µM (inactive),> 10 µM (inactive),> 10 µM (inactive),> 10 µM (inactive),> 10 µM (inactive),> 10 µM (inactive),> 10 µM (inactive),> 10 µM (inactive),> 10 µM (inactive),> 10 µM (inactive),> 10 µM (inactive),> 10 µM (inactive),> 10 µM (inactive),> 10 µM (inactive),> 10 µM (inactive),> 10 µM (inactive),> 10 µM (inactive),> 10 µM (inactive),GI50 (KM12): > 10 µM (inactive); GI50 (HT-29): > 10 µM (inactive); GI50 (PC-3): > 10 µM (inactive); GI50 (MDA-N): > 10 µM (inactive); GI50 (MDA-MB-231): > 10 µM (inactive); GI50 (TK-10): > 10 µM (inactive); GI50 (UACC-257): > 10 µM (inactive); GI50 (SN12C): > 10 µM (inactive); GI50 (HCC 2998): > 10 µM (inactive); GI50 (EKVX): > 10 µM (inactive); GI50 (SF-295): > 10 µM (inactive); GI50 (OVCAR-8): > 10 µM (inactive); GI50 (CCRF-CEM): > 10 µM (inactive); GI50 (M14): > 10 µM (inactive); GI50 (DU-145): > 10 µM (inactive); GI50 (COLO 205): > 10 µM (inactive); GI50 (HCT-15): > 10 µM; GI50 (RXF 393): > 10 µM (inactive); GI50 (CAKI-1): > 10 µM (inactive)
C=CCN1C(=O)CS/C1=N/NC(=O)C(O)(c1ccccc1)c1ccccc1,> 10 µM (inactive),> 10 µM (inactive),> 10 µM (inactive),> 10 µM (inactive),> 10 µM (inactive),> 10 µM (inactive),> 10 µM (inactive),> 10 µM (inactive),> 10 µM (inactive),> 10 µM (inactive),> 10 µM (inactive),> 10 µM (inactive),> 10 µM (inactive),> 10 µM (inactive),> 10 µM (inactive),> 10 µM (inactive),> 10 µM (inactive),> 10 µM (inactive),> 10 µM (inactive),> 10 µM (inactive),GI50 (OVCAR-4): > 10 µM (inactive); GI50 (MDA-MB-435): > 10 µM (inactive); GI50 (U-251): > 10 µM (inactive); GI50 (NCI-H460): > 10 µM (inactive); GI50 (ACHN): > 10 µM (inactive); GI50 (HOP-92): > 10 µM (inactive); GI50 (NCI/ADR-RES): > 10 µM (inactive); GI50 (CCRF-CEM): > 10 µM (inactive); GI50 (M14): > 10 µM (inactive); GI50 (SK-MEL-2): > 10 µM (inactive); GI50 (COLO 205): > 10 µM (inactive); GI50 (RXF 393): > 10 µM (inactive); GI50 (CAKI-1): > 10 µM (inactive)
